In patent US20210361683A1, “COMPOSITIONS AND METHODS FOR THE TREATMENT OF MUSCLE CONTRACTURES” (Children's Hospital Medical Center, priority 2018, published 2021):
Entries after “also recorded” stand apart in the source; their conditions may differ.

Experiments:
[1] = tested on: elbow and shoulder contractures after neonatal brachial plexus injury (NBPI); assay: Elbow and shoulder contracture severity (range of motion) in mouse model of NBPI; type: in vivo, mice; conditions: for contracture severity (efficacy): compared to 0.4 mg/kg from P5; for shoulder and elbow contracture severity: 4 weeks after NBPI
Description: All animal procedures were approved by Cincinnati Children's Hospital Medical Center's Institutional Animal Care and Use Committee. Unilateral global (C5-T1) NBPIs were created by surgical extraforaminal nerve root excision in 5-day-old CD-1 mice (Charles River) under general anesthesia. Deficits in motor function were validated post-operatively and again prior to sacrifice to ensure only animals with permanent motor deficits were included for analysis. Elbow and shoulder (where indicated) range of motion were measured immediately post-sacrifice using a validated digital photography technique in order to confirm the presence of elbow flexion and shoulder internal rotation contractures^16. Mice were euthanized by CO2 asphyxiation, except at postnatal day 5 and 12 time points, where isoflurane overdose was utilized.
(§1) Mice were treated either with saline (as the vehicle; 0.9% Sodium Chloride Injection USP, Hospira), [Gly^14]-Humanin G ([Gly14]-HN; 1 μg/dose; H6161, Sigma-Aldrich) alone or co-administered with Bortezomib (0.2-0.4 mg/kg body weight; 5043140001, Sigma-Aldrich) by IP injection starting immediately post-operative or delayed by 3/7 days (P8/12 start), and injected every other day with sacrifice at 4 weeks post-NBPI (24 h following the last IP injection). The use of littermate controls was rejected due to the risk of treatment cross-contamination either through direct contact or by ingestion from their mother, and [Gly14]-HN was included to mitigate the toxicity that has been reported for Bortezomib^47. Deficits in motor function were confirmed as described above, and measurement of shoulder and elbow range of motion was measured immediately post-sacrifice^16 with blinding to the treatment group. Mouse limbs harvested 4 weeks post-NBPI were positioned on cork for processing of bilateral brachialis muscles for DIC microscopy as described above for measurement of muscle sarcomere length.

[2] = tested on: brachialis muscle after NBPI; assay: Brachialis sarcomere length (muscle length) 4 weeks post-NBPI; type: in vivo, mice; conditions: 0.3 mg/kg, P8 to P33
Description: Sarcomere lengths were measured from single muscle fibers, acquiring 6 images per fiber by differential interference contrast (DIC) microscopy on a Nikon Eclipse Ti-E inverted microscope with the Plan Apo λ40× objective (Nikon Instruments), Xyla 4.2 megapixel, 16-bit sCMOS monochromatic camera (Andor/Oxford Instruments) and NIS-Elements imaging software (Nikon Instruments). A series of 10 sarcomeres were measured per image in AxioVision software and an average sarcomere length was then determined for each fiber.
Mouse limbs harvested 4 weeks post-NBPI were processed on cork at 90° elbow flexion (confirmed by digital x-ray) prior to fixation in 10% NBF as described previously^16. […]
Mice were treated either with saline (as the vehicle; 0.9% Sodium Chloride Injection USP, Hospira), [Gly^14]-Humanin G ([Gly14]-HN; 1 μg/dose; H6161, Sigma-Aldrich) alone or co-administered with Bortezomib (0.2-0.4 mg/kg body weight; 5043140001, Sigma-Aldrich) by IP injection starting immediately post-operative or delayed by 3/7 days (P8/12 start), and injected every other day with sacrifice at 4 weeks post-NBPI (24 h following the last IP injection). […] Deficits in motor function were confirmed as described above, and measurement of shoulder and elbow range of motion was measured immediately post-sacrifice^16 with blinding to the treatment group. […]

[3] = Survival / mortality of NBPI mice during treatment; type: in vivo
Description: as §1

| Compound | contracture severity ([1]; 0.2 mg/kg, P5 to P33) | contracture severity (efficacy) ([1]; 0.3 mg/kg, P5 to P33) | prevention of contractures ([1]; 0.3 mg/kg, P8 to P33) | shoulder and elbow contracture severity ([1]; 0.4 mg/kg every other day IP, P5 to P33, co-administered with [Gly14]-Humanin, vs saline) | contracture severity (efficacy) ([1]; 0.4 mg/kg, P8 to P33) | contracture severity ([1]; 0.4 mg/kg, P12-P33) | prevention of contractures, dose dependence ([1]; 0.2-0.4 mg/kg following NBPI) | reduction in the sarcomere elongation caused by NBPI (rescue of brachialis length) [2] | sarcomere length in the brachialis [2] | mortality ([3]; 0.2 mg/kg, P5 to P33) | mortality ([3]; 0.3 mg/kg, P5 to P33, compared to 0.4 mg/kg from P5) | mortality (early death) ([3]; 0.3 mg/kg, P8 to P33) | mortality ([3]; 0.4 mg/kg every other day, P5 to P33) | mortality ([3]; 0.4 mg/kg, P8 to P33, compared to 0.4 mg/kg from P5) | mortality ([3]; 0.4 mg/kg, P12-P33) | shoulder and elbow contracture severity ([1]; [Gly14]-Humanin alone, 1 μg/dose IP every other day) |
| --- | --- | --- | --- | --- | --- | --- | --- | --- | --- | --- | --- | --- | --- | --- | --- | --- |
| CC(C)C[C@H](NC(=O)[C@H](Cc1ccccc1)NC(=O)c1cnccn1)B(O)O [Bortezomib, ([1R)-3-methyl-1-[[(2S)-1-oxo-3-phenyl-2-[(pyrazinylcarbonyl)amino]propyl]amino]butyl]-boronic acid] | less severe contractures compared to saline they were not as efficacious as 0.4 mg/kg Bortezomib administered beginning at P5 | maintained efficacy | optimal efficacy in prevention of contractures; also recorded: lack of contractures | significantly reducing shoulder and elbow contracture severity; also recorded: corrected | maintained efficacy | less severe contractures compared to saline they were not as efficacious as 0.4 mg/kg Bortezomib administered beginning at P5 | prevents contractures in a dose-dependent manner | 70% | preserves muscle length | eliminated mortality | partially improved mortality | minimal early death | caused mortality, mostly in the first week of treatment | partially improved mortality | eliminated mortality | – |
| [Gly^14]-Humanin | – | – | – | – | – | – | – | – | – | – | – | – | – | – | – | no effect alone |
